Measurements: patent US8895547B2, “Substituted phenyl-oxathiazine derivatives, method for producing them, drugs containing said compounds and the use thereof” (Sanofi, priority 2011, dated 2014)

Target: T1, human 11β-HSD1 (Homo sapiens, UniProt P28845)
T1 construct: host or cells: microsome fraction
Experiment: Enzymatic 11beta-HSD1 test (SPA-based detection)
Assay type: biochemical
Conditions: human 11β-HSD1 microsome fraction, [1,2-3H]-cortisone, NADPH, 37° C. 1 hour
Method: Enzymatic 11beta-HSD1 test:
To measure the activity of the compounds, an SPA-based detection method (Solly et al. 2005) was employed. First of all, 20 μl of the human 11β-HSD1 microsome fraction (0.2 μg of protein), prepared in 50 mM HEPES, 0.1% BSA (w/v), were applied to a plate with 384 wells. The test compounds (0.09 μl) were applied to the assay plate in 100% DMSO. The reaction was started by addition of 20 μl of [1,2-^3H]-cortisone (0.1 μCi/[…]) in assay buffer comprising 25 mM HEPES, 100 mM KCl, 5 mM NaCl, 2 mM MgCl2 and 0.25 mM NADPH. The plate was agitated at 37° C. for 1 hour. At the same time, a stop solution comprising 20 mg/ml SPA-PVT beads, 1.6 mg/ml monoclonal cortisol antibody and 0.01 mM SSR110887 (inhibitor from the Biovitrium patent) in 50 mM HEPES, 1 M NaCl and 1 M KCl was stirred at room temperature. To stop the reaction, 25 μl of the stop solution were added to each well. The plate was agitated gently at room temperature for 1 further hour and then centrifuged at 500 gav for 1 minute, in order that the SPA beads could settle out. The plate was then read in a Wallac-1450-Microbeta unit with a standard SPA program (counting time 1 min/well). The comparative compound was glycyrrhetinic acid.
Protein and radioactive substrate were dispensed with a Biomek FX unit (Beckman Coulter) for handling liquids. The test compounds were added with a Cybi-Well equipped with a 90 nl pin tool (CyBio).
Lit.: Solly S, Mundt S S, Zokian H J, Juy-Fang Ding G, Hermanowski-Vosatka A, Strulovici B and Zheng W. High-throughput screening of 11β-Hydroxysteroid dehydrogenase type 1 in scintillation proximity format. Assay Drug Dev Technol 2005; 3:377-384.

T1 sequence (P28845 whole entry): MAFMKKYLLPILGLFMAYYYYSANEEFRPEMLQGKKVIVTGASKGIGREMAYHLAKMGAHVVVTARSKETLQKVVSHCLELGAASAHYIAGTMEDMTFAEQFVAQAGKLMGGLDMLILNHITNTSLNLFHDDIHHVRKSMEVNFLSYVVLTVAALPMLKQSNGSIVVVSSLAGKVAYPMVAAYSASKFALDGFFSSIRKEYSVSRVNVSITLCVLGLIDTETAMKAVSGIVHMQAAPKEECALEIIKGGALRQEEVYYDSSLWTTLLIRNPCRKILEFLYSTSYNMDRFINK

SMILES	IC50
CC1(C)OC(N[C@@H](CCO)c2ccccc2)=NS(=O)(=O)C1c1cccc(Cc2ccccc2)c1 (stereo partly drawn) [Example 10, (S)-3-[5-(3-Benzyl-phenyl)-6,6-dimethyl-4,4-dioxo-5,6-dihydro-4H-4lambda6-[1,4,3]oxathiazin-2-ylamino]-3-phenyl-propan-1-ol]	15 nM
CC1(C)OC(N[C@@H](CCO)c2ccccc2)=NS(=O)(=O)C1c1ccccc1 (single isomer, unassigned) [Example 29]	23 nM
CC1(C)OC(NC(CCO)c2cccc(F)c2F)=NS(=O)(=O)C1c1ccc(-c2ccccc2)cc1 (centres unmarked) [Example 82, 3-(5-Biphenyl-4-yl-6,6-dimethyl-4,4-dioxo-5,6-dihydro-4H-4lambda6-[1,4,3]oxathiazin-2-ylamino)-3-(2,3-difluorophenyl)-propan-1-ol]	23 nM
CN1CCN(c2cnc(-c3ccc(C4C(C)(C)OC(N[C@@H](CCO)c5ccccc5F)=NS4(=O)=O)cc3)cn2)CC1 (stereo partly drawn) [Example 133, (S)-3-{6,6-Dimethyl-5-[4-(4-methyl-3,4,5,6-tetrahydro-2H-[1,2′]bipyrazinyl-5′-yl)-phenyl]-4,4-dioxo-5,6-dihydro-4H-4lambda6-[1,4,3]oxathiazin-2-ylamino}-3-(2-fluorophenyl)-propan-1-ol]	7 nM
Cn1nccc1-c1ccc(C2C(C)(C)OC(N[C@@H](CCO)c3ccccc3F)=NS2(=O)=O)cc1 (stereo partly drawn) [Example 111, (S)-3-{6,6-Dimethyl-5-[4-(2-methyl-2H-pyrazol-yl)-phenyl]-4,4-dioxo-5,6-dihydro-4H-4lambda6-[1,4,3]oxathiazin-2-ylamino}-3-(2-fluorophenyl)-propan-1-ol]	7 nM
CC1(C)OC(N[C@@H](CCO)c2ccccc2F)=NS(=O)(=O)C1c1ccc(CN2CCOCC2)cc1 (stereo partly drawn) [Example 129, (S)-3-[6,6-Dimethyl-5-(4-morpholin-4-ylmethyl-phenyl)-4,4-dioxo-5,6-dihydro-4H-4lambda6-[1,4,3]oxathiazin-2-ylamino]-3-(2-fluorophenyl)-propan-1-ol]	18 nM
CC1(C)OC(N[C@@H](CCO)c2ccccc2F)=NS(=O)(=O)C1c1ccc(N2CCN(C(C)(C)C)CC2)cc1 (stereo partly drawn) [Example 138, (S)-3-{5-[4-(4-tert-Butyl-piperazin-1-yl)-phenyl]-dimethyl-4,4-dioxo-5,6-dihydro-4H-4lambda6-[1,4,3]oxathiazin-2-ylamino}-3-(2-fluorophenyl)-propan-1-ol]	61 nM
CC1(C)OC(N[C@@H](CCO)c2ccccc2)=NS(=O)(=O)C1(C)c1cccc(-c2ccccc2)c1 (stereo partly drawn) [Example 72, (S)-3-(5-Biphenyl-3-yl-5,6,6-trimethyl-4,4-dioxo-5,6-dihydro-4H-4lambda6-[1,4,3]oxathiazin-2-ylamino)-3-phenyl-propan-1-ol]	46 nM
CC1(C)OC(N[C@@H](CCO)c2ccccc2F)=NS(=O)(=O)C1c1ccc(-c2ccnc(C#N)c2)cc1 (some centres unmarked) [Example 127]	6 nM
CC1(C)OC(N[C@@H](CCO)c2ccccc2)=NS(=O)(=O)C1c1cccc(-c2ccccc2)c1 (stereo partly drawn) [Example 8, (S)-3-(5-Biphenyl-3-yl-6,6-dimethyl-4,4-dioxo-5,6-dihydro-4H-4lambda6-[1,4,3]oxathiazin-2-ylamino)-3-phenyl-propan-1-ol]	22 nM
C[C@H](NC1=NS(=O)(=O)C(c2cccnc2)C(C)(C)O1)c1ccccc1F (stereo partly drawn) [Example 168, (6,6-Dimethyl-4,4-dioxo-5-pyridin-3-yl-5,6-dihydro-4H-4lambda6-[1,4,3]oxathiazin-2-yl)-[(S)-1-(2-fluorophenyl)-ethyl]-amine]	21 nM
CN1CCC(c2ccc(C3C(C)(C)OC(N[C@@H](CCO)c4ccccc4F)=NS3(=O)=O)cc2)CC1 (some centres unmarked) [Example 103]	32 nM
CC(C)(C)c1ccc(C2(C)C(C)(C)OC(N[C@@H](CCO)c3ccccc3F)=NS2(=O)=O)cc1 (stereo partly drawn) [Compound 61, (S)-3-[5-(4-tert-Butylphenyl)-5,6,6-trimethyl-4,4-dioxo-5,6-dihydro-4H-4lambda6-[1,4,3]oxathiazin-2-ylamino]-3-(2-fluorophenyl)propan-1-ol]	14 nM
C[C@H](NC1=NS(=O)(=O)C(c2ccc(C3CCN(C4CC4)CC3)cc2)C(C)(C)O1)c1ccccc1F (stereo partly drawn) [Example 172, {5-[4-(1-Cyclopropyl-piperidin-4-yl)-phenyl]-6,6-dimethyl-4,4-dioxo-5,6-dihydro-4H-4lambda6-[1,4,3]oxathiazin-2-yl}-[(S)-1-(2-fluorophenyl)-ethyl]-amine]	55 nM
CC1(C)OC(N[C@@H](CCO)c2ccccc2)=NS(=O)(=O)C1c1ccc(OCc2ccccc2)cc1 (stereo partly drawn) [Example 4, (S)-3-[5-(4-Benzyloxy-phenyl)-6,6-dimethyl-4,4-dioxo-5,6-dihydro-4H-4lambda6-[1,4,3]oxathiazin-2-ylamino]-3-phenyl-propan-1-ol]	14 nM
C[C@H](NC1=NS(=O)(=O)C(c2ccc(-c3cccc(C(N)=O)c3)cc2)C(C)(C)O1)c1ccccc1F (stereo partly drawn) [Example 156, 4′-{2-[(S)-1-(2-fluorophenyl)-ethylamino]-6,6-dimethyl-4,4-dioxo-5,6-dihydro-4H-4lambda6-[1,4,3]oxathiazin-5-yl}-biphenyl-3-carboxamide]	12 nM
CC1(C)OC(N[C@@H](CCO)c2ccccc2F)=NS(=O)(=O)C1c1ccc(C2CCN(CCC(F)(F)F)CC2)cc1 (stereo partly drawn) [Example 143, (S)-3-(6,6-Dimethyl-4,4-dioxo-5-{4-[1-(3,3,3-trifluoropropyl)-piperidin-4-yl]-phenyl}-5,6-dihydro-4H-4lambda6-[1,4,3]oxathiazin-2-ylamino)-3-(2-fluorophenyl)-propan-1-ol]	13 nM
CC1(C)OC(N[C@@H](CCO)c2ccccc2)=NS(=O)(=O)C1(C)c1ccccc1 (stereo partly drawn) [Example 42, (S)-3-Phenyl-3-(5,6,6-trimethyl-4,4-dioxo-5-phenyl-5,6-dihydro-4H-4lambda6-[1,4,3]oxathiazin-2-ylamino)-propan-1-ol]	17 nM
CN1CCN(CCOc2ccc(C3C(C)(C)OC(N[C@@H](CCO)c4ccccc4F)=NS3(=O)=O)cc2)CC1 (stereo partly drawn) [Example 137, (S)-3-(6,6-Dimethyl-5-{4-[2-(4-methyl-piperazin-1-yl)-ethoxy]-phenyl}-4,4-dioxo-5,6-dihydro-4H-4lambda6-[1,4,3]oxathiazin-2-ylamino)-3-(2-fluoro-phenyl)-propan-1-ol]	70 nM
CC1(C)OC(N[C@@H](CCO)c2ccccc2F)=NS(=O)(=O)[C@H]1c1ccc(-c2cccc(C(N)=O)c2)cc1 [Example 149, 4′-{(S)-2-[(S)-1-(2-fluorophenyl)-3-hydroxy-propylamino]-6,6-dimethyl-4,4-dioxo-5,6-dihydro-4H-4lambda6-[1,4,3]oxathiazin-5-yl}-biphenyl-3-carboxamide]	4 nM
CC1(C)OC(N[C@@H](CCO)c2ccccc2F)=NS(=O)(=O)C1(C)c1ccc(-c2ccc(F)cc2)cc1 (stereo partly drawn) [Example 80, (S)-3-[5-(4′-Fluorobiphenyl-4-yl)-5,6,6-trimethyl-4,4-dioxo-5,6-dihydro-4H-4lambda6-[1,4,3]oxathiazin-2-ylamino]-3-(2-fluorophenyl)-propan-1-ol]	7 nM
CC1(C)OC(N[C@@H](CCO)c2ccccc2)=NS(=O)(=O)C1c1ccc(O)cc1 (stereo partly drawn) [Example 5, 4-[2-((S)-3-Hydroxy-1-phenyl-propylamino)-6,6-dimethyl-4,4-dioxo-5,6-dihydro-4H-4lambda6-[1,4,3]oxathiazin-5-yl]-phenol]	1670 nM
CC1(C)OC(N[C@@H](CCO)c2ccccc2Cl)=NS(=O)(=O)C1c1ccc(-c2ccccc2)cc1 (stereo partly drawn) [Example 83, (S)-3-(5-Biphenyl-4-yl-6,6-dimethyl-4,4-dioxo-5,6-dihydro-4H-4lambda6-[1,4,3]oxathiazin-2-ylamino)-3-(2-chloro-phenyl)-propan-1-ol]	17 nM
CC1(C)OC(N[C@@H](CCO)c2ccccc2F)=NS(=O)(=O)C1c1ccc(-c2cccnc2)cc1 (stereo partly drawn) [Example 113, (S)-3-[6,6-Dimethyl-4,4-dioxo-5-(4-pyridin-3-yl-phenyl)-5,6-dihydro-4H-4lambda6-[1,4,3]oxathiazin-2-ylamino]-3-(2-fluorophenyl)-propan-1-ol]	4 nM
CC(C)(C)c1ccc(C2C(C)(C)OC(N[C@@H](CCO)c3ccccc3)=NS2(=O)=O)cc1 (stereo partly drawn) [Compound 60, (S)-3-[5-(4-tert-Butylphenyl)-6,6-dimethyl-4,4-dioxo-5,6-dihydro-4H-4lambda6-[1,4,3]oxathiazin-2-ylamino]-3-phenylpropan-1-ol]	43 nM
C[C@H](NC1=NS(=O)(=O)C(c2cccc(C(=O)N3CCOCC3)c2)C(C)(C)O1)c1ccccc1F (stereo partly drawn) [Example 192, (3-{2-[(S)-1-(2-fluorophenyl)-ethylamino]-6,6-dimethyl-4,4-dioxo-5,6-dihydro-4H-4lambda6-[1,4,3]oxathiazin-5-yl}-phenyl)-morpholin-4-yl-methanone]	252 nM
